Reference: ChEMBL document CHEMBL1201862, “PubChem BioAssay data set” (2004)
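Five concentrations, 48 hours, 96-well plates. GI50 is the concentration that inhibits growth by half.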 Calls of active or inactive are those of the source. Cut-off read from the data, not from the text of the source: active = GI50 up to about 1.1 µM and inactive = higher.

Assays:
Experiment in all cases: NCI anticancer screen, dose series, 48 h
K562 = test system: K562
M14 = test system: M14
U-251 = test system: U-251
ACHN = test system: ACHN
UO-31 = test system: UO-31
A498 = test system: A498
HOP-92 = test system: HOP-92
SR = test system: SR
SF-268 = test system: SF-268
Malme-3M = test system: Malme-3M
HOP-62 = test system: HOP-62
SK-MEL-2 = test system: SK-MEL-2
HL-60 = test system: HL-60
SK-MEL-5 = test system: SK-MEL-5
CAKI-1 = test system: CAKI-1
OVCAR-4 = test system: OVCAR-4
DU-145 = test system: DU-145
LOX IMVI = test system: LOX IMVI
RPMI-8226 = test system: RPMI-8226
MDA-N = test system: MDA-N

| SMILES | GI50 (K562) | GI50 (M14) | GI50 (U-251) | GI50 (ACHN) | GI50 (UO-31) | GI50 (A498) | GI50 (HOP-92) | GI50 (SR) | GI50 (SF-268) | GI50 (Malme-3M) | GI50 (HOP-62) | GI50 (SK-MEL-2) | GI50 (HL-60) | GI50 (SK-MEL-5) | GI50 (CAKI-1) | GI50 (OVCAR-4) | GI50 (DU-145) | GI50 (LOX IMVI) | GI50 (RPMI-8226) | GI50 (MDA-N) |
| --- | --- | --- | --- | --- | --- | --- | --- | --- | --- | --- | --- | --- | --- | --- | --- | --- | --- | --- | --- | --- |
| CC(=O)OCC1OC(n2c(C)cc(C)c(C#N)c2=S)C(OC(C)=O)C(OC(C)=O)C1OC(C)=O (stereo not given) | > 100 µM (inactive) | > 100 µM (inactive) | > 100 µM (inactive) | > 100 µM (inactive) | > 100 µM (inactive) | > 100 µM (inactive) | > 100 µM (inactive) | > 100 µM (inactive) | > 100 µM (inactive) | > 100 µM (inactive) | > 100 µM (inactive) | > 100 µM (inactive) | > 100 µM (inactive) | > 100 µM (inactive) | > 100 µM (inactive) | > 100 µM (inactive) | > 100 µM (inactive) | > 100 µM (inactive) | > 100 µM (inactive) | > 100 µM (inactive) |
| O=C1NC(Nc2ccccc2)=N/C1=C\c1c(Cl)cccc1Cl | 21 µM (inactive) | 22.8 µM (inactive) | 17.9 µM (inactive) | 37.5 µM (inactive) | 4.42 µM (inactive) | 32.3 µM (inactive) | 11.9 µM (inactive) | 5.09 µM (inactive) | 29.3 µM (inactive) | 22.7 µM (inactive) | 28.2 µM (inactive) | 18 µM (inactive) | 3.32 µM (inactive) | 16.3 µM (inactive) | 48.1 µM (inactive) | 7.18 µM (inactive) | 24.7 µM (inactive) | 62.7 µM (inactive) | 33.5 µM (inactive) | 19.8 µM (inactive) |
| CC1C2CC(CC23OCC(CCl)O3)C1(C)C (stereo not given) | > 100 µM (inactive) | > 100 µM (inactive) | – | > 100 µM (inactive) | > 100 µM (inactive) | > 100 µM (inactive) | > 100 µM (inactive) | > 100 µM (inactive) | > 100 µM (inactive) | > 100 µM (inactive) | > 100 µM (inactive) | – | > 100 µM (inactive) | > 100 µM (inactive) | > 100 µM (inactive) | > 100 µM (inactive) | > 100 µM (inactive) | > 100 µM (inactive) | > 100 µM (inactive) | > 100 µM (inactive) |
| Nc1ccc(-c2nc3ccccc3s2)cc1C#Cc1ccccc1 | 31 µM (inactive) | 16.3 µM (inactive) | 20.1 µM (inactive) | 18.8 µM (inactive) | 18.3 µM (inactive) | 21 µM (inactive) | 18.8 µM (inactive) | 37.5 µM (inactive) | 21.1 µM (inactive) | 12.2 µM (inactive) | 14.5 µM (inactive) | – | 26.5 µM (inactive) | 17 µM (inactive) | 15.8 µM (inactive) | 20.6 µM (inactive) | 23.8 µM (inactive) | 19 µM (inactive) | 20.9 µM (inactive) | 17.9 µM (inactive) |
| COC(=O)c1cccc(OC)c1C#Cc1c(OC)cccc1OC | > 100 µM (inactive) | > 100 µM (inactive) | > 100 µM (inactive) | > 100 µM (inactive) | > 100 µM (inactive) | > 100 µM (inactive) | > 100 µM (inactive) | > 100 µM (inactive) | > 100 µM (inactive) | > 100 µM (inactive) | > 100 µM (inactive) | > 100 µM (inactive) | > 100 µM (inactive) | > 100 µM (inactive) | > 100 µM (inactive) | 54.1 µM (inactive) | > 100 µM (inactive) | > 100 µM (inactive) | > 100 µM (inactive) | 53.2 µM (inactive) |
| N#C/C(C(=O)Nc1ccccc1)=C(/N)N1CCCC1 | > 100 µM (inactive) | > 100 µM (inactive) | > 100 µM (inactive) | > 100 µM (inactive) | 97.9 µM (inactive) | > 100 µM (inactive) | > 100 µM (inactive) | > 100 µM (inactive) | > 100 µM (inactive) | > 100 µM (inactive) | > 100 µM (inactive) | > 100 µM (inactive) | > 100 µM (inactive) | > 100 µM (inactive) | > 100 µM (inactive) | > 100 µM (inactive) | > 100 µM (inactive) | > 100 µM (inactive) | > 100 µM (inactive) | > 100 µM (inactive) |
| CCOC(=O)C(NC(=O)c1ccccc1)(N1CCN(c2cc3c(cc2F)c(=O)c(C(=O)O)cn3CC)CC1)C(F)(F)F (stereo not given) | 31.8 µM (inactive) | 51.1 µM (inactive) | 41.2 µM (inactive) | 33.1 µM (inactive) | 31.3 µM (inactive) | 24.5 µM (inactive) | 28.8 µM (inactive) | 27.2 µM (inactive) | 40.9 µM (inactive) | 22 µM (inactive) | 31.2 µM (inactive) | 31.5 µM (inactive) | 20 µM (inactive) | 22.9 µM (inactive) | 21.4 µM (inactive) | 33.1 µM (inactive) | 59.3 µM (inactive) | 15.6 µM (inactive) | 25.2 µM (inactive) | 37.7 µM (inactive) |
| CC1CN=C(Nc2ccc(S(N)(=O)=O)cc2)S1 (stereo not given) | > 100 µM (inactive) | > 100 µM (inactive) | > 100 µM (inactive) | > 100 µM (inactive) | 39.4 µM (inactive) | > 100 µM (inactive) | > 100 µM (inactive) | > 100 µM (inactive) | > 100 µM (inactive) | > 100 µM (inactive) | > 100 µM (inactive) | > 100 µM (inactive) | > 100 µM (inactive) | > 100 µM (inactive) | > 100 µM (inactive) | > 100 µM (inactive) | > 100 µM (inactive) | > 10 µM (inactive) | > 100 µM (inactive) | > 10 µM (inactive) |
| CCOC(CN(C)C(=O)Nc1cccc2ccccc12)OCC | > 10 µM (inactive) | > 10 µM (inactive) | > 10 µM (inactive) | > 10 µM (inactive) | > 10 µM (inactive) | > 10 µM (inactive) | > 10 µM (inactive) | > 10 µM (inactive) | > 10 µM (inactive) | > 10 µM (inactive) | > 10 µM (inactive) | > 10 µM (inactive) | > 10 µM (inactive) | > 10 µM (inactive) | > 10 µM (inactive) | > 10 µM (inactive) | > 10 µM (inactive) | > 10 µM (inactive) | > 10 µM (inactive) | > 10 µM (inactive) |
| Cc1nc2c3c(ncn2n1)Oc1c(c(-c2ccccc2)nn1-c1ccccc1)C3c1ccc(Cl)cc1 (stereo not given) | > 100 µM (inactive) | 79.3 µM (inactive) | 53.6 µM (inactive) | 40.8 µM (inactive) | > 100 µM (inactive) | > 100 µM (inactive) | 98.4 µM (inactive) | 45.1 µM (inactive) | 47.2 µM (inactive) | 46.1 µM (inactive) | 75.7 µM (inactive) | > 100 µM (inactive) | > 10 µM (inactive) | – | > 100 µM (inactive) | 22.1 µM (inactive) | > 100 µM (inactive) | > 100 µM (inactive) | > 100 µM (inactive) | > 100 µM (inactive) |
| COc1ccc(/[N+]([O-])=C/c2ccccc2OC(=S)S)cc1 | 37.4 µM (inactive) | 25.5 µM (inactive) | 46.6 µM (inactive) | 38.5 µM (inactive) | 24.6 µM (inactive) | 26.1 µM (inactive) | 12.4 µM (inactive) | 28.4 µM (inactive) | 34.8 µM (inactive) | > 100 µM (inactive) | – | 28.2 µM (inactive) | 24.3 µM (inactive) | 30.5 µM (inactive) | 33.7 µM (inactive) | 28.4 µM (inactive) | 39.9 µM (inactive) | 20.1 µM (inactive) | 25.6 µM (inactive) | 24.7 µM (inactive) |
| CN(CCCNC(=O)c1nn(-c2ccc(Cl)cc2Cl)c2c1ccc1ccccc12)CCCNC(=O)c1nn(-c2ccc(Cl)cc2Cl)c2c1ccc1ccccc12 | 1.1 µM (active) | 1.6 µM (inactive) | 1.69 µM (inactive) | 1.66 µM (inactive) | – | 1.43 µM (inactive) | 1.84 µM (inactive) | 0.278 µM (active) | 1.61 µM (inactive) | 1.95 µM (inactive) | 1.77 µM (inactive) | 1.65 µM (inactive) | 0.322 µM (active) | 1.88 µM (inactive) | 1.58 µM (inactive) | 1.68 µM (inactive) | 1.77 µM (inactive) | 1.69 µM (inactive) | 1.87 µM (inactive) | 1.73 µM (inactive) |
| CC1(C)C(c2ccccc2)=[N+]([O-])C(C)(C)N1O | – | > 10 µM (inactive) | > 10 µM (inactive) | > 10 µM (inactive) | – | > 10 µM (inactive) | > 10 µM (inactive) | > 10 µM (inactive) | > 10 µM (inactive) | > 10 µM (inactive) | > 10 µM (inactive) | > 10 µM (inactive) | > 10 µM (inactive) | > 10 µM (inactive) | > 10 µM (inactive) | > 10 µM (inactive) | > 10 µM (inactive) | > 10 µM (inactive) | > 10 µM (inactive) | > 10 µM (inactive) |
| Cc1cc2nc(-c3cc(C(C)(C)C)c(O)c(C(C)(C)C)c3)[nH]c2cc1C | 3.18 µM (inactive) | 4.67 µM (inactive) | 2.64 µM (inactive) | – | 6.17 µM (inactive) | > 100 µM (inactive) | > 100 µM (inactive) | 1.06 µM (active) | 9.62 µM (inactive) | > 100 µM (inactive) | > 100 µM (inactive) | > 100 µM (inactive) | 13.8 µM (inactive) | > 71 µM (inactive) | – | 1.54 µM (inactive) | > 100 µM (inactive) | 4.16 µM (inactive) | 12.8 µM (inactive) | 3.49 µM (inactive) |
